Source: patent US9388147B2 (Receptos, Inc., priority 2009, dated 2016)
pEC50: −log10 of the molar value. Structures can show the parent of a compound that is named as a salt.

Experiments:
S1P2 = target: T1, S1P2 (Homo sapiens, UniProt O95136); assay: Specificity over other S1P receptors: S1P2 CRE-bla CHOK1 reporter assay; format: cell-based; details: S1P2 CRE-bla CHOK1, without Forskolin; read-out: S1P2 agonist value (EC50)
T1 construct: expressed in transfected cells; host or cells: CRE-bla CHOK1
T1 sequence (O95136 whole entry, species assumed): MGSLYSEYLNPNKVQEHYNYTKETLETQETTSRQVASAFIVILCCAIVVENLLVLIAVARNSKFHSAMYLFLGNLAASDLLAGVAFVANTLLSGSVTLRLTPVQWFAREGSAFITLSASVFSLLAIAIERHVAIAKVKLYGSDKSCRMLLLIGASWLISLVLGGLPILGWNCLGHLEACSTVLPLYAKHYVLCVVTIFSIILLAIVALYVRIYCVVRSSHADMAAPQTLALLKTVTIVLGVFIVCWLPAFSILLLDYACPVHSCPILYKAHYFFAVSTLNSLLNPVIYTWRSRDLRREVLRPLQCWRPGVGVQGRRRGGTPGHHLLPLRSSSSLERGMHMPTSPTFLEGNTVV

[1] = tested on: CD4 or CD8 positive T cells; assay: Lymphopenia in mice; format: in vivo; details: female C57BL6 mice, 1 mg/kg oral gavage, area under the effect curve over 24 h
Method: In mice: Female C57BL6 mice (Simonsen Laboratories, Gilroy Calif.) were housed in an ALAAC accredited facility and the research was approved by the facilities Institutional Animal Care and Use Committee (IACUC). The animals were acclimated to the laboratory for at least 5 days prior to initiation of experiments. Mice (n=3/compound/time-point) were dosed by oral gavage with 1 mg/kg compound formulated in a vehicle consisting of 5% DMSO/5% Tween 20 and 90% 0.1N HCl. Control mice were dosed PO with the vehicle. Terminal whole blood samples were collected from isoflurane anesthetized mice by cardiac puncture into EDTA. Whole blood was incubated with rat anti-mouse CD16/CD32 (Mouse BD Fc Block, #553141), PE-Rat anti-mouse CD45R/B220 (BD #553089), APC-Cy7-Rat anti-mouse CD8a (BD #557654), and Alexa Fluor647-Rat anti-mouse CD4 (BD #557681) for 30 min on ice. Red blood cells were lysed using BD Pharm Lyse Lysing buffer (#555899) and white blood cells were analyzed by FACS. Lymphopenia was expressed as the % of white blood cells that were CD4 or CD8 positive T cells. The overall lymphopenia response over 24 h was estimated by calculating the area under the effect curve (AUEC) using the linear trapezoidal rule.

S1P1 R120A/E121A = target: T2, S1P1 R120A/E121A (Homo sapiens, UniProt P21453, E121A/R120A); assay: Phosphorylated-ERK1/2 In Cell Western, S1P1 R120A/E121A mutant in CHOK1 cells; format: cell-based
T2 construct: expressed in transfected cells; host or cells: CHOK1
T2 sequence (P21453 whole entry R120A/E121A): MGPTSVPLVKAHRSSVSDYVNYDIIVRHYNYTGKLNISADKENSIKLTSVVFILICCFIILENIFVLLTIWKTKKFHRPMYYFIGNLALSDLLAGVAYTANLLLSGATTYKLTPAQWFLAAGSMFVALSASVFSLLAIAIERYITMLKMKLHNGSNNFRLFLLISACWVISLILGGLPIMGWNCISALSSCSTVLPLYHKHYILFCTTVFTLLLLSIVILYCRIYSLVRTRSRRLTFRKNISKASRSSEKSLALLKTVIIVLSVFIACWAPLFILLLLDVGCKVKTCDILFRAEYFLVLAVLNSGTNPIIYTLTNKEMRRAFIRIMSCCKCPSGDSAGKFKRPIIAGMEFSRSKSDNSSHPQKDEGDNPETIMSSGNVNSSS
Method: (§1) A. Quick-change mutagenesis with PfuTurbo DNA polymerase (Stratagene) was conducted using S1P1/pcDNA3.1 (Missouri S&T cDNA Resource Centre) as the template. Primers were as follows: […]
(§2) PCR conditions were 15 cycles with the following parameters: 95° C. 30 sec, 58° C. 30 sec, 68° C. for 60 sec. All constructs were sequence verified.
(§3) CHOK1 cells were transfected using Fugene (Roche). Stably expressing mixed pools were selected with 2 mg/ml G418. Expression of functional S1P1/EDG1 receptor was confirmed by cell surface FACS with a S1P1 antibody (R&D Systems, clone 218713). Stable pools were seeded at 40,000 cells/well in a clear bottom 96-well tray, and incubated at 37° C. in 5% CO2 for 18 hrs. Cells were serum-starved in FreeStyle 293 medium (Invitrogen) for 4-6 h, then incubated for 5 min with a dose response of compound, in duplicate. Cells were fixed with 4% paraformaldehyde for 20 min, permeabilized with 0.1% Triton X-100 in PBS (4×5 min washes) and blocked for 1 h in Odyssey Blocking Buffer (LI-COR). All incubations were at room temperature. Cells were incubated for 18 h at 4° C. in Rabbit anti-Phospho-ERK1/2 (Cell Signaling #4377) and Mouse anti-ERK1/2 (Cell Signaling #9107) both diluted 1:800 in Odyssey Blocking Buffer. Plates were washed with 0.1% Tween-20 in PBS and then incubated with Odyssey Blocking Buffer containing IRDye 680-labeled goat anti-rabbit antibody (#926-32221; diluted 1/500) and IRDye 800CW-labeled goat anti-mouse antibody (#926-32210; diluted 1/1000). Plates were washed with 0.1% Tween-20 in PBS, all liquid was removed from the wells and the plates were scanned using a LICOR Odyssey scanner. The phospho-ERK1/2 signal was normalized to the ERK1/2 signal. Data was analyzed by non-linear regression using GraphPad Prism to determine the EC50 of binding.

S1P1 N101A = target: T3, S1P1 N101A (Homo sapiens, UniProt P21453, N101A); assay: Phosphorylated-ERK1/2 In Cell Western, S1P1 N101A mutant in CHOK1 cells; format: cell-based
T3 construct: expressed in transfected cells; host or cells: CHOK1
T3 sequence (P21453 whole entry N101A): as the sequence (P21453 whole entry R120A/E121A) above, with N101A, A120R, A121E counted along it
Method: as §1, §2, §3

S1P1 W269L = target: T4, S1P1 W269L (Homo sapiens, UniProt P21453, W269L); assay: Phosphorylated-ERK1/2 In Cell Western, S1P1 W269L mutant; format: cell-based
T4 construct: expressed in transfected cells; host or cells: CHOK1
T4 sequence (P21453 whole entry W269L): as the sequence (P21453 whole entry R120A/E121A) above, with A120R, A121E, W269L counted along it
Method: as §3, with “The phospho-ERK1/2 signal was normalized to the ERK1/2 signal.” left out, “binding. […]” for “binding.”

S1P1/EDG1 = S1P1/EDG1 (Homo sapiens, UniProt P21453); assay: Phosphorylated-ERK1/2 In Cell Western, wild type S1P1 in CHOK1 cells; format: cell-based
S1P1/EDG1, sequence (P21453 whole entry): as the sequence (P21453 whole entry R120A/E121A) above, with A120R, A121E counted along it
Method: as §3, with “The phospho-ERK1/2 signal was normalized to the ERK1/2 signal.” left out

TNBS induced colitis = assay: TNBS Crohn's colitis model in rats; format: in vivo, Sprague-Dawley rat; details: 1 mg/kg oral daily for six days, 31% in the diseased rats
Method: Male Sprague-Dawley rats (180-200 g) were acclimatized for seven days and then assigned to 8 rats per group so that each group had approximately the same mean weight. Twenty-four hours prior to disease initiation, rats are deprived of food. Rats were anaesthetized and weighed, then 80 mg/kg TNBS solution (50% TNBS: 50% 200 proof ethanol) was instilled into colon via a 20 g feeding needle inserted into the anus. The rats were maintained in head down position until recovery from anesthesia. Daily oral dosing was initiated 2 h post TNBS-instillation for six days. Prednisolone served as a positive control and was administered orally daily at 10 mg/kg. Body weights were monitored daily and 24 h after the last dose, all groups are terminated. The colon was removed, flushed of fecal matter and examined for gross changes including strictures, adhesions and ulcers. The colon length, weight of the distal 2 cm, and wall thickness was recorded.

CC(C)Oc1ccc(-c2nc(-c3cccc4c3CC[C@H]4N)no2)cc1C#N [Compound 49, (R)-5-(3-(1-amino-2,3-dihydro-1H-inden-4-yl)-1,2,4-oxadiazol-5-yl)-2-isopropoxy-benzonitrile hydrochloride]
pEC50 (S1P2): 5.97
Mouse Lymphopenia (AUEC) [1]: 1762

CC(C)Oc1ccc(-c2nc(-c3cccc4c3CC[C@@H]4N)no2)cc1C#N [Compound 50, (S)-5-(3-(1-amino-2,3-dihydro-1H-inden-4-yl)-1,2,4-oxadiazol-5-yl)-2-isopropoxy-benzonitrile]
pEC50 (S1P2): 5.11
Effect of mutation on binding of compound (in words) (S1P1 R120A/E121A; S1P1 R120A/E121A): has no influence on the binding
Fold change in EC50 compared to wild type S1P1 (S1P1 R120A/E121A; S1P1 variant R120A/E121A, phospho-ERK1/2): 2
Effect of mutation on binding of compound (in words) (S1P1 N101A; S1P1 N101A): reduces the binding
Fold change in EC50 compared to wild type S1P1 (S1P1 N101A; S1P1 variant N101A, phospho-ERK1/2): 32
Effect of mutation on binding of compound (in words) (S1P1 W269L): abolishes binding
Phosphorylation of ERK1/2 by S1P1 agonist (in words) (S1P1/EDG1): induce phosphorylation of ERK1/2
Mouse Lymphopenia (AUEC) [1]: 1632

CC(C)Oc1ccc(-c2nc(-c3cccc4c3CC[C@H]4NCCO)no2)cc1C#N [Compound 85, (R)-5-(3-(1-(2-hydroxyethylamino)-2,3-dihydro-1H-inden-4-yl)-1,2,4-oxadiazol-5-yl)-2-isopropoxybenzonitrile]
pEC50 (S1P2): 5.24
Mouse Lymphopenia (AUEC) [1]: 1425
TNBS induced colon shortening (TNBS induced colitis): 15%

CC(C)Oc1ccc(-c2nc(-c3cccc4c3CC[C@H]4NCC(=O)N(C)C)no2)cc1C#N [Compound 90, (R)-2-(4-(5-(3-cyano-4-isopropoxyphenyl)-1,2,4-oxadiazol-3-yl)-2,3-dihydro-1H-inden-1-ylamino)-N,N-dimethylacetamide hydrochloride]
pEC50 (S1P2): 5.18
Mouse Lymphopenia (AUEC) [1]: 1486

CC(C)Oc1ccc(-c2nc(-c3cccc4c3CC[C@@H]4NCC(=O)N(C)C)no2)cc1C#N [Compound 91, (S)-2-(4-(5-(3-cyano-4-isopropoxyphenyl)-1,2,4-oxadiazol-3-yl)-2,3-dihydro-1H-inden-1-ylamino)-N,N-dimethylacetamide]
pEC50 (S1P2): < 5.00
Mouse Lymphopenia (AUEC) [1]: 1408
